Assay results from patent US10188647B2, “Combination therapy using P53 activator and c-Met inhibitor” (Samsung Electronics Co., Ltd., priority 2013, dated 2019).

Columns and labels:
[1] = system: MKN45 stomach cancer cell line; assay: Western blot of p53 and p21 expression/accumulation, MKN45 cells; format: cell-based; details: 24 hours
Method: (§1) The activation of cell signal transduction system after the co-administration of L3-1Y antibody that is a c-Met antibody prepared in the above reference example and Nutlin-3a that is a p53 activator, was tested in MKN45 stomach cancer cell line and Caki-1 cell line.
(§2) Particularly, RPMI1640 (for MKN45 cells) containing 10% FBS, and DMEM (for Caki-1 cells) media (GIBCO) were added to a 96-well plate, to which MKN45 cell line (ATCC) and Caki-1 cell line (both of them were all obtained from ATCC) were each seeded in an amount of […], and then incubated overnight at 37° C. On the next day, the sole treatment of L3-1Y antibody at a concentration of 0.1 ug/ml (MKN45 cells) and 5 ug/ml (Caki-1 cells), […], and the combined treatment of L3-1Y antibody at 0.1 ug/ml (MKN45 cells) and 5 ug/ml ([…], respectively) were administered. After 24 hours post-administration, c-Met inhibition and p53 activation were analyzed by western blot.

[2] = system: MKN45 stomach cancer cell line; assay: MKN45 cell proliferation after sole or combined treatment (CTG); format: cell-based; details: 72 hours
Method: The effects obtained by the co-administration of L3-1Y antibody that is a c-Met antibody prepared in the above reference example and Nutlin-3a that is a p53 activator, were tested in MKN45 stomach cancer cell line.
In particular, RPMI1640 media (GIBCO) containing 10% FBS were added to a 96-well plate, to which MKN45 stomach cancer cell line (ATCC) was seeded at 10,000 cells/well, and then incubated overnight at 37° C. On the next day, the sole treatment of 0.1 ug/ml of L3-1Y antibody, the sole treatment of 0.5 uM of Nutlin-3a (#N6287, sigma) which is a p53 activator, and the combined treatment of 0.1 ug/ml of L3-1Y antibody and 0.5 uM (micromole) of Nutlin-3a were administered to the incubated cells. After 72 hours post-administration, a CTG solution was added to the wells at 100 ul per well and after 30 min., and cell numbers were counted to measure a cell proliferation level.

Caki-1 cell line [3] = system: Caki-1 cell line; parameters: expression of p21: dose or concentration left out as unconfirmed; details: Caki-1 cells, 24 hours, western blot
Method: as §1, §2

Caki-1 cell line [4] = assay: Caki-1 cell proliferation (BrdU assay), agonism of L3-1Y antibody; format: cell-based; details: sole treatment 10 ug/ml L3-1Y, serum-free, 24 hours
Method: The effects obtained by the co-administration of L3-1Y antibody that is a c-Met antibody prepared in the above reference example and Nutlin-3a that is a p53 activator, were tested in Caki-1 cell line.
Particularly, DMEM media (GIBCO) containing 10% FBS were added to a 96-well plate, to which Caki-1 cell line (ATCC) was seeded at 5,000 cells/well, and then incubated overnight at 37° C. On the next day, the media was replaced by serum-free media, which were then incubated for 24 hours. The sole treatment of 10 ug/ml of L3-1Y antibody, and the combined treatment of 0.1 ug/ml of L3-1Y antibody and 5 uM of Nutlin-3a were administered to the incubated cells. After 24 hours post-administration, a BrdU assay was conducted to measure the cell proliferation level.

c-Met = c-Met (Homo sapiens, UniProt P08581); assay: Specificity of expressed scFv to c-Met; format: binding; details: expressed scFv product
Chain of c-Met (P08581 25-1390): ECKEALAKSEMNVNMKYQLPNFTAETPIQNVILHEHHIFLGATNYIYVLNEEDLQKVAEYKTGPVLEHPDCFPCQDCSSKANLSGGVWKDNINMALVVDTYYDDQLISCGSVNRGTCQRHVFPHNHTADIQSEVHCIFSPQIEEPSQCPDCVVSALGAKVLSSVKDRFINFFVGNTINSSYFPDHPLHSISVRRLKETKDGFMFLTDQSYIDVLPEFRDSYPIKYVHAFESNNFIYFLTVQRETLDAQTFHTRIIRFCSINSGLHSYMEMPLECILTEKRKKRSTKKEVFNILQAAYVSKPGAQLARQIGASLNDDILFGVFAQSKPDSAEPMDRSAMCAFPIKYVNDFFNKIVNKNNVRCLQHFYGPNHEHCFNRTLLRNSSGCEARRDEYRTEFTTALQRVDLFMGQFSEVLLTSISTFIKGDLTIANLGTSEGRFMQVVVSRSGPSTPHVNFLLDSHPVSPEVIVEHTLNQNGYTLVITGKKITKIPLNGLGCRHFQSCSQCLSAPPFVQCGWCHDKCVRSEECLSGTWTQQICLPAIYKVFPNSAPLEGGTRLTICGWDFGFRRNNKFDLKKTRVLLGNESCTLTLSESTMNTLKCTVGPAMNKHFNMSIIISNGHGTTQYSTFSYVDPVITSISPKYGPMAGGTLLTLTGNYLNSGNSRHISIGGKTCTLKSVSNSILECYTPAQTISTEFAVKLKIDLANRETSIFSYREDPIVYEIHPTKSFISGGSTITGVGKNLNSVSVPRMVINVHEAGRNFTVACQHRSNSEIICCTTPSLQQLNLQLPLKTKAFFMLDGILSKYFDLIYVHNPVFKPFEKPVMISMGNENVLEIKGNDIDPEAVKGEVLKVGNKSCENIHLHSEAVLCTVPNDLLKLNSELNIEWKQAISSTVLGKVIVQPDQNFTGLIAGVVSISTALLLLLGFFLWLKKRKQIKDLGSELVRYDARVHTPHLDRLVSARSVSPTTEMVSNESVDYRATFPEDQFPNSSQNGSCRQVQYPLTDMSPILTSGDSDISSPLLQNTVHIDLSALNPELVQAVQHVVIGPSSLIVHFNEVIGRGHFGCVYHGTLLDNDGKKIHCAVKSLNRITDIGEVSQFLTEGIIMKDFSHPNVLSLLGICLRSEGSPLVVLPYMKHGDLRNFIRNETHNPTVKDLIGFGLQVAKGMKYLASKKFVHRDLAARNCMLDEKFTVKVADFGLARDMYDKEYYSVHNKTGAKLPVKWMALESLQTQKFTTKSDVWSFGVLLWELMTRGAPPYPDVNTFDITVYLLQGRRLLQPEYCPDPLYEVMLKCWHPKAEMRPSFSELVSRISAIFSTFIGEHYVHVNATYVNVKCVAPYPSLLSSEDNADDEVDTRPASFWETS

[5] = sole treatment 0.5 uM Nutlin-3a
[6] = sole treatment 0.5 mM Nutlin-3a

## COc1ccc(C2=N[C@@H](c3ccc(Cl)cc3)[C@@H](c3ccc(Cl)cc3)N2C(=O)N2CCNC(=O)C2)c(OC(C)C)c1 [Nutlin-3a]
[1]; [5]
  expression of p21: accumulated
[1]; [6]
  p53 accumulation: accumulated
[2]; [5]
  suppressive effects of cell proliferation: did not show suppressive effects of cell proliferation
Caki-1 cell line [3]; [6]
  p53 accumulation: accumulated
Caki-1 cell line [3]; sole treatment
  expression of p21: accumulated

B1: L3-1Y: anti c-Met antibody: huAbF46-H4-A1 heavy chain variable region, human IgG2 hinge and constant region, kappa light chain (antibody)
heavy: EVQLVESGGGLVQPGGSLRLSCAASGFTFTDYYMSWVRQAPGKGLEWLGFIRNKANGYTTEYSASVKGRFTISRDNSKNTLYLQMNSLRAEDTAVYYCARDNWFAYWGQGTLVTVSSASTKGPSVFPLAPCSRSTSESTAALGCLVKDYFPEPVTVSWNSGALTSGVHTFPAVLQSSGLYSLSSVVTVPSSNFGTQTYTCNVDHKPSNTKVDKTVERKCCVECPPCPAPPVAGPSVFLFPPKPKDTLMISRTPEVTCVVVDVSHEDPEVQFNWYVDGVEVHNAKTKPREEQFNSTFRVVSVLTVVHQDWLNGKEYKCKVSNKGLPAPIEKTISKTKGQPREPQVYTLPPSREEMTKNQVSLTCLVKGFYPSDIAVEWESNGQPENNYKTTPPMLDSDGSFFLYSKLTVDKSRWQQGNVFSCSVMHEALHNHYTQKSLSLSPGK
light: DIQMTQSPSSLSASVGDRVTITCKSSQSLLASGNQNNYLAWYQQKPGKAPKMLIIWASTRVSGVPSRFSGSGSGTDFTLTISSLQPEDFATYYCQQSYSRPYTFGQGTKVEIKRTVAAPSVFIFPPSDEQLKSGTASVVCLLNNFYPREAKVQWKVDNALQSGNSQESVTEQDSKDSTYSLSSTLTLSKADYEKHKVYACEVTHQGLSSPVTKSFNRGEC
[2]; sole treatment 0.1 ug/ml L3-1Y
  suppressive effects of cell proliferation: about 10%
Caki-1 cell line [4]
  promoted cell proliferation as compared to the media-only control: ≥ 20%

B2: scFv of huAbF46: scFv with structure VH-linker-VL from heavy and light chain variable regions of huAbF46 antibody (protein)
scFv: EVQLVESGGGLVQPGGSLRLSCAASGFTFTDYYMSWVRQAPGKGLEWLGFIRNKANGYTTEYSASVKGRFTISRDNSKNTLYLQMNSLRAEDTAVYYCARDNWFAYWGQGTLVTVSSGLGGLGGGGSGGGGSGGSSGVGSDIQMTQSPSSLSASVGDRVTITCKSSQSLLASGNQNNYLAWHQQKPGKAPKMLIIWASTRVSGVPSRFSGSGSGTDFTLTISSLQPEDFATYYCQQSYSAPLTFGQGTKVEIKR
c-Met
  specificity to c-Met: exhibit specificity to c-Met
